In patent publication US12642796B2, “Method and device of treating chronic kidney disease-associated pruritus” (Avior, Inc., priority 2018, dated 2026):
“And” between values parts separate entries of the source, which are not always exact repeats. Equal entries are not always repeated.

Key:
C57BL mice = assay: Effect of nalmefene on SP-induced scratching behavior (Example 2); assay type: in vivo, mouse; conditions: nalmefene SC 1 hour prior to SP ID 33.7 μg; 30 and 60 minutes after SP, FIG. 3
Protocol: Scratching behavior was monitored for 30 and 60 minutes after SP injection. Controls included mice that received PBS instead of SP (N=6, Group 5) and mice that received a placebo dose of PBS and ID dose of SP (N=4, Group 6).

C57BL/6 mice = assay: SP and nalmefene injection, scratches Groups 10-12, 0-60 minutes (Example 3); assay type: in vivo, mouse
Protocol: Fifteen male C57BL/6 mice received a single intradermal (ID) bolus injection of substance P (SP) or PBS. Group 10 (N=6) received a single 50 μL injection of PBS. Group 11 (N=4) received SP in PBS at a dose of 0.5 mM/50 μl. […] Scratching behavior was video recorded and assessed.
Groups 10 and 11: All mice were placed in a clear cylindrical enclosure 60 minutes prior to testing to acclimate. An ID bolus injection of SP in PBS was administered. Recording began immediately following injection of SP and recorded for 60 minutes.
Group 12: All mice were placed in clear cylinder enclosures for 60 minutes prior to testing to acclimate. A SC bolus injection of nalmefene was administered. 30 minutes after the nalmefene injection, an ID bolus injection of SP in PBS was administered. Recording began immediately following injection of SP and recorded for 60 minutes.
Animals in Groups 10-12 were acclimated for 1 hour prior to recording. Behavioral recording lasted for 60 minutes (T0-T60). 6 animals were dosed for Group 12 but only 5 animals were tested due to one animal being excluded as an outlier due to no response to SP injection.
The number of scratches per 10-minute time interval for Groups 10-12 is given below in Table 3. The data is also shown graphically in FIG. 4.
The number of scratches per 0-30 minute and 30-60 minute time intervals is given below in Table 4 for Group 10 (PBS), Group 11 (0.5 mM SP), and Group 12 (0.75 mg nalmefene). The data is also shown graphically in FIG. 5.

[1] = Group 12, Nalmefene 0.75 mg SC before SP 0.5 mM ID, 0-30 min
[2] = Group 12, Nalmefene 0.75 mg SC before SP 0.5 mM ID, 30-60 min
[3] = Group 12, nalmefene 0.075 mg/75 μL SC 30 min prior to SP 0.5 mM/50 μL ID, 0-10 min
[4] = Group 12, nalmefene 0.075 mg/75 μL SC 30 min prior to SP 0.5 mM/50 μL ID, 10-20 min
[5] = Group 12, nalmefene 0.075 mg/75 μL SC 30 min prior to SP 0.5 mM/50 μL ID, 20-30 min
[6] = Group 12, nalmefene 0.075 mg/75 μL SC 30 min prior to SP 0.5 mM/50 μL ID, 30-40 min
[7] = Group 12, nalmefene 0.075 mg/75 μL SC 30 min prior to SP 0.5 mM/50 μL ID, 40-50 min
[8] = Group 12, nalmefene 0.075 mg/75 μL SC 30 min prior to SP 0.5 mM/50 μL ID, 50-60 min

Compound: C=C1CC[C@@]2(O)[C@H]3Cc4ccc(O)c5c4[C@@]2(CCN3CC2CC2)[C@H]1O5 [Nalmefene, 6-methylene-6-deoxy-N-cyclopropylmethyl-14 hydroxydihydronormorphine]
- pruritogenic response to SP (C57BL mice): completely mitigated
- Scratches, Avg. (C57BL/6 mice; [1]): 8.6
- Scratches, individual animals (C57BL/6 mice; [1]): 10 and 29 and 0 (2×) and 4
- Scratches, Avg. (C57BL/6 mice; [2]): 2.9
- Scratches, individual animals (C57BL/6 mice; [2]): 1 and 5 and 0 (2×) and 8.5
- Scratches, Avg. (C57BL/6 mice; [3]): 2
- Scratches, individual animals (C57BL/6 mice; [3]): 10 and 0 (4×)
- Scratches, Avg. (C57BL/6 mice; [4]): 3
- Scratches, individual animals (C57BL/6 mice; [4]): 0 (3×) and 13 and 2
- Scratches, Avg. (C57BL/6 mice; [5]): 3.6
- Scratches, individual animals (C57BL/6 mice; [5]): 0 (3×) and 16 and 2
- Scratches, Avg. (C57BL/6 mice; [6]): 1
- Scratches, individual animals (C57BL/6 mice; [6]): 0 (4×) and 5
- Scratches, Avg. (C57BL/6 mice; [7]): 1.8
- Scratches, individual animals (C57BL/6 mice; [7]): 0.5 and 5 and 0 (2×) and 3.5
- Scratches, Avg. (C57BL/6 mice; [8]): 0.1
- Scratches, individual animals (C57BL/6 mice; [8]): 0.5 and 0 (4×)
- ability to control scratching behavior, and by extension pruritus (C57BL/6 mice; Group 12 vs Groups 10 and 11, 0-60 min): maintained over the hour
